Results taken from patent publication US11484032B2, “Compositions for inhibition of insect sensing” (Vanderbilt University, priority 2011, dated 2022).

Tests used:
AgORco+AgOR10 [1] = biological target: T1, AgORco+AgOR10 (Anopheles gambiae, UniProt Q7QCC7); experiment: Fluo-4 Ca2+ imaging, HEK293 cells expressing Orco+AgOR10; format: cell-based; design: Orco 10 + Orco Angatonist % Reduction / Orco 10 + Orco Agonist % of control: concentration or dose not given beside the values; conditions: Orco 10 + Orco; for Orco 10 + Orco Angatonist % Reduction: antagonist mode
T1 construct: expressed in transfected cells
T1 sequence (Q7QCC7 1-478): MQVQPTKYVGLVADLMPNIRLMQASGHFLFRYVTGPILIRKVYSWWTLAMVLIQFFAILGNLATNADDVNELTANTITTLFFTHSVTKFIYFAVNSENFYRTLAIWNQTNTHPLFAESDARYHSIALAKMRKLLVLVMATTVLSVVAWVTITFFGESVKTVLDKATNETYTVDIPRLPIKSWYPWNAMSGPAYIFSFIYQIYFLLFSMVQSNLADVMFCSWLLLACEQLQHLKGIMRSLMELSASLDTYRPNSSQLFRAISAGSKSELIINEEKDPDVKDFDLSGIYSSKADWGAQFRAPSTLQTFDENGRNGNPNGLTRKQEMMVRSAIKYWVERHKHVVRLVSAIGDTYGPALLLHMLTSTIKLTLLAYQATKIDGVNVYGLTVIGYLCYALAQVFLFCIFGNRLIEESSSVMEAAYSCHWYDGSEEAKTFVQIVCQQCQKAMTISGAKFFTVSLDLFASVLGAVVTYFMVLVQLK
Method in brief: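 Stable Flp-In T-REx 293 lines co-expressing Orco and OR, induced overnight with 0.3 u-g/ul tetracycline, loaded with 1.8 uM Fluo-4 AM plus 2.5 mM probenecid for 45 min at 37 °C. Ca2+ mobilization read after 20 s baseline and compound addition; Max/Min ratios normalized to the maximum responder.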

Orco 28 + Orco = biological target: T2, Orco 28 + Orco (Anopheles gambiae, UniProt Q7QCC7); experiment: Activity against insect odorant sensory receptors, Orco 28 + Orco (Table 1); format: cell-based; conditions: for Orco 28 + Orco Potentiator % increase: potentiator mode; for Orco 28 + Orco Antagonist % Reduction: antagonist mode
T2 construct: expressed in transfected cells
T2 sequence (Q7QCC7 1-478): T1 sequence (Q7QCC7 1-478)
Description: The activity against insect odorant sensory receptors was evaluated for various disclosed compounds, and the data were collected in Table 1.

[2] = tested on: Un-transfected HEK293 cells; experiment: Whole-cell patch clamp, un-transfected HEK293 control cells; format: cell-based, human
Description: (§1) Currents from OR-expressing HEK293 cells were amplified with an Axopatch 200b Amplifier (Axon Instruments) and digitized through a Digidata 1322A (Axon Instruments). Electrophysiological data was recorded and analyzed using pCLAMP 10 (Axon Instruments). Electrodes were fabricated from quartz tubing (Sutter Instruments) and pulled to 4-6 MiΩ for whole cell recording. Electrodes were filled with internal solution (120 mM KCl, 30 mM D-glucose, 10 mM HEPES, 2 mM MgCl2, 1.1 mM EGTA, and 0.1 CaCl2) (pH 7.35, 280 mOsm). External (bath) solution contained 130 mM NaCl, 34 mM D-glucose, 10 mM HEPES, 1.5 mM CaCl2), 1.3 mM KH2PO4, and 0.5 MgSO4 (pH 7.35, 300 mOsm). Compounds were diluted in external solution and locally perfused to the recording cell using Perfusion Pencil (Automate Scientific) and controlled by a ValveLink 8.2 controller (Automate Scientific). Whole cell recordings were sampled at 10 kHz and filtered at 5 kHz. Outside-out patches were obtained using 10-15MΩ electrodes pulled from standard glass capillaries (World Precision Instruments) and fire-polished with an MF-830 micro forge (Narishige). Single channel recordings were sampled at 20 kHz. Recordings were reduced to 1 kHz and low-pass filtered at 500 Hz for display and analysis using QuB (SUNY at Buffalo).

AgORco+AgOR10 [3] = biological target: T1, AgORco+AgOR10; experiment: Whole-cell patch clamp, HEK293 cells expressing AgORco+AgOR10; format: cell-based
Description: as §1
(§2) To test the hypothesis that VUAA1 directly agonized AgORco, whole-cell patch clamp responses were examined in AgORco+AgOR10 expressing cells as well as HEK293 cells stably expressing AgORco alone. […] The VUAA1-dependent currents in AgORco+AgOR10 cells resembled those resulting from application of benzaldehyde, an orthosteric agonist of AgOR10 (FIG. 3C) (Wang, 2010; Carey, 2010). […] To investigate the specificity of VUAA1 agonism, the inventors transiently transfected HEK cells with the AgORco orthologs of Drosophila melanogaster and Heliothis virescens, DmORco and HvOR2 respectively.

AgORco = biological target: T3, AgORco (Anopheles gambiae, UniProt Q7QCC7); experiment: Whole-cell patch clamp, HEK293 cells stably expressing AgORco alone; format: cell-based; conditions: AgORco alone cells, holding potential −60 mV
T3 construct: expressed in transfected cells
T3 sequence (Q7QCC7 1-478): T1 sequence (Q7QCC7 1-478)
Description: as §1, §2

[4] = biological target: T4, rat transient receptor potential vanilloid 1 (rTRPV1) (Rattus norvegicus, UniProt O35433); experiment: Whole-cell patch clamp, HEK cells stably expressing rTRPV1; format: cell-based
T4 construct: expressed in transfected cells

[5] = biological target: T5, mosquito odorant receptor (complex not stated) (Anopheles gambiae, UniProt Q7QCC7); experiment: Agonism of mosquito odorant receptors by VUAA derivatives (complex not stated), cell-based Ca2+ imaging; conditions: FIGS. 23, 24, 26, 28; OR complex not stated
T5 sequence (Q7QCC7 1-478): T1 sequence (Q7QCC7 1-478)
Excerpt: For transient transfections, ORs were cloned into pCl (Promega) and transfected into Flp-In™ T-REx™293 cell lines (Invitrogen) with Fu GENE6 (Roche). For the creation of stable cell lines, a cell culture expression vector capable of expressing Orco in conjunction with a conventional OR, pcDNA5/FRT/TO (Invitrogen) was modified to create two individual expression cassettes each under the control of a separate CMV/Tet02 promoter and a BGH poly-adenylation signal. Cells (as above) were transfected with the modified pcDNA5 plasmid along with POG44 (a Flp recombinase expression plasmid) to facilitate site-specific recombination. Stable cell lines were selected using Hygromycin B (Invitrogen). Cells were maintained in DMEM (Invitrogen) supplemented with 10% Tetracycline-free FBS (HyClone) and 15 ng/ml Blasticidin. For fluorometric Ca2+ measurements, stable lines expressing ORs of interest were seeded at 20,000 cells/well in black wall, poly-lysine coated 384-well cell culture plates (Greiner) and treated with […] tetracycline (Sigma) overnight to induce OR expression. Cells were dye-loaded with 1.8 uM Fluo-4 AM (Molecular Probes), 2.5 mM Probenecid (Molecular Probes) in assay buffer (20 mM HEPES, IX HBSS) for 45 minutes at 37° C. in 5% CO2 prior to each assay. Ca^2+ mobilization was assayed in an FDSS6000 (Hamamatsu). Baseline readings were taken for 20 s before automated addition of compound previously diluted in DMSO and assay buffer. Ratios were described as Maximum/Minimum response and each response was normalized to the maximum responder.

T4 sequence (O35433 whole entry): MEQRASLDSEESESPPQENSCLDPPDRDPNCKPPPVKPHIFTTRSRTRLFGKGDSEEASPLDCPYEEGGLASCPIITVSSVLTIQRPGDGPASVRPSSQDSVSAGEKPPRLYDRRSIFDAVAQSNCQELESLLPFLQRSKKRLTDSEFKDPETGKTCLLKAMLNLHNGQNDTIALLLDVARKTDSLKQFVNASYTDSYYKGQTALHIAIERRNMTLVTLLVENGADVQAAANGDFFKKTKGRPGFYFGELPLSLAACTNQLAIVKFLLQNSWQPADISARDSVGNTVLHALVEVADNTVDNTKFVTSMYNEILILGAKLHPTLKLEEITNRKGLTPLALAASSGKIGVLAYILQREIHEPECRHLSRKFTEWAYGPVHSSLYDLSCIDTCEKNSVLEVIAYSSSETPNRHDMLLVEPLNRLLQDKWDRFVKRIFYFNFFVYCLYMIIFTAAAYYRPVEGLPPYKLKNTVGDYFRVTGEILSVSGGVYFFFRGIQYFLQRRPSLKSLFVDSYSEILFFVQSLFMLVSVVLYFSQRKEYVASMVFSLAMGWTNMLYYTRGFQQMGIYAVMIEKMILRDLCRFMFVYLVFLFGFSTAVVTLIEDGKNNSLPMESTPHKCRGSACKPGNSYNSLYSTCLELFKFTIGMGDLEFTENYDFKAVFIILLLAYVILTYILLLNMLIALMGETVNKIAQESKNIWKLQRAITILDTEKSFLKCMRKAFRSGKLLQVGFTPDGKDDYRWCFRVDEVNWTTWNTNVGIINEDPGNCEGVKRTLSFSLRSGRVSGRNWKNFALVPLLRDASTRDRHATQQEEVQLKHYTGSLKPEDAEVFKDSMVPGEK

EC50 [5] [µM] | Structure (SMILES) | Orco 10 + Orco Angatonist % Reduction (AgORco+AgOR10 [1]) [%] | Orco 28 + Orco Antagonist % Reduction (Orco 28 + Orco) [%] | other results
 | CCn1c(SCC(=O)Nc2ccc(S(=O)(=O)Nc3ccccn3)cc2)nnc1-c1ccncc1 |  |  | Orco 10 + Orco Potentiator % increase (AgORco+AgOR10 [1]; potentiator mode): 12.31%; Orco 28 + Orco Potentiator % increase (Orco 28 + Orco): 15.45%
 | CCn1c(CNC(=O)c2ccco2)nnc1SCC(=O)Nc1cc(C)c(C)cc1Br |  |  | Orco 28 + Orco Potentiator % increase (Orco 28 + Orco): 12.28%
 | CCn1c(COc2ccccc2)nnc1SCC(=O)Nc1cc(C)ccc1OC | 33.67 | 17.21 | 
 | CCn1c(Cc2c(C)[nH]c3ccccc23)nnc1SCC(=O)Nc1ccc(Br)cc1 | 13.11 | 37.93 | 
 | CCn1c(SCC(=O)N2c3ccccc3Sc3ccccc32)nnc1-c1ccco1 | 48.26 | 28.73 | 
 | O=Cc1ccccc1 [Benzaldehyde] |  |  | whole-cell current response [2]: did not respond; whole-cell current response (AgORco+AgOR10 [3]; AgORco+AgOR10 cells, holding potential −60 mV): concentration-dependent responses; reversal potential of agonist-induced current (AgORco+AgOR10 [3]; AgORco+AgOR10 complexes, mean s.e.m.): −2.9±1.4 mV; whole-cell current response (AgORco): only Orco+AgOR10 cells responded to BA
 | COc1cc(CNC(=O)CCCC/C=C/C(C)C)ccc1O [Capsaicin, capsaicin, reference compound] |  |  | whole-cell current response [4]: robust response
180 | CCn1c(SCC(=O)Nc2ccc(C(C)C)cc2)nnc1-c1cnn(C)c1 [D00049 row 11] |  |  | 
200 | CCn1c(SCC(=O)Nc2ccc(C(C)C)cc2)nnc1-c1cn[nH]c1 [D00049 row 12] |  |  | 

Structure (SMILES) | EC50 [5] [µM] | Orco 10 + Orco Angatonist % Reduction (AgORco+AgOR10 [1]) [%] | Orco 28 + Orco Antagonist % Reduction (Orco 28 + Orco) [%] | other results
CCn1c(SCC(=O)Nc2ccc(C(C)C)cc2)nnc1-c1cccnc1 [D00049 row 2] | 20 |  |  | 
